Results on 1 compound are retold here after patent US20210205292A1, “INHIBITORS OF CREB-CBP INTERACTION FOR TREATMENT OF LEUKEMIA” (The Board of Trustees of the Leland Stanford Junior …, priority 2016, published 2021).

Structures are written as SMILES.

Assay type in all cases: cell-based, human
For data set [1], the system named is primary AML patient bone marrow samples. In words: Single cell mass cytometry (CyTOF) of primary AML patient samples. As to the method:
These were stained for viability using cisplatin. Cells were fixed with 1.6% PFA (Electron Microscopy Sciences) for 10 min and washed with cell staining media (CSM). Fc receptor block was performed using Human TruStain FcX (Biolegend) following manufacturer's instructions. Cells were stained for surface proteins at room temperature for 30 min. Following staining, cells were washed twice with CSM and permeabilized with methanol pre-cooled to 4° C. for 10 min. Cells were then washed twice and stained for intracellular proteins for 30 min at room temperature. Surface and intracellular staining cocktails are listed in supplementary methods. Cells were washed and stained with 1 mL of 2000× iridium DNA intercalator (diluted 1:5000 in PBS with 1.6% PFA; DVS Sciences) overnight at 4° C. Data were acquired using internal metal isotope bead standards as previously described (Finck et al., “Normalization of mass cytometry data with bead standards.” Cytometry A. 2013; 83(5):483-94). Cell events were acquired at approximately 500 events per second on a CyTOF I (DVS Sciences/Fluidigm). All antibodies were also purchased from DVS Sciences/Fluidigm. Each patient sample was individually normalized to the internal bead standards prior to analysis. […]

Data set [2] concerns normal bone marrow progenitor cells. In words: Methylcellulose hematopoietic cell colony assay. To be noted: up to 10 mM, colonies counted on day 14. As to the method:
Human bone marrow cells from non-leukemic patients were resuspended in a volume of 0.3 mL of IMDM with 20% FBS at 5×10^5 cells/mL and mixed with varying concentrations of the Compound A (10 pM to 10 mM in 0.1% DMSO) or 0.1% DMSO control. This was added to 3 mL of methylcellulose-containing growth factors IL-3, IL-6, G-CSF, erythropoietin, SCF (Methocult GF-H4434; Stem Cell Technology) and plated. The colonies were observed daily and counted on day 14.

The next data set relates to HL-60 cells. Briefly: Flow cytometry of apoptosis (c-PARP+, aqua amine+) in HL-60 cells. To be noted: Homo sapiens, 72 hours, 2 mM, read-out: cells apoptotic or non-viable. As to the method:
AML cell lines were purchased from ATCC and maintained with IMDM (Gibco) supplemented with 10% FBS (Fisher Scientific) and 1% PSG (Gibco). Cells were plated at a density of 2-4×10^5 cells/ml, and treated with various doses of Compound A in 0.1% DMSO or 0.1% DMSO alone. Cell counts and viability were determined using the Vi-CELL XR Cell Viability Analyzer (Beckman Coulter). HL-60 and KG-1 cells overexpressing CREB or CBP were generated using lentiviral gene delivery with subsequent puromycin selection and FACs sorting for GFP. CREB knockdown was achieved by infecting cells with a lentivirus expressing the shRNA sequence 5′-[…]-3′ (SEQ ID NO:). For chemotherapy combination experiments, combination index values were calculated using median effects analysis on Calcusyn software. Human patient bone marrow samples were cultured in DMEM plus 20% FBS and 1×PSG, supplemented with recombinant GM-CSF (20 ng/ml), G-CSF (20 ng/ml), SCF (50 ng/ml), IL-3 (20 ng/ml), and IL-6 (10 ng/ml). Cells were plated at a concentration of 1×10^5 cells/ml in a 12-well plate. Vehicle (0.1% DMSO) or Compound A (2 μM) was added for up to 72 hours. All samples contained >85% AML blasts and were not sorted prior to performing experiments. […] Single cell suspensions of bone marrow culture were subsequently analyzed on a D×P10 flow cytometer (Cytek). […]

For the compound `N#Cc1ccc(NC(=O)c2cc3ccccc3cc2O)cc1` [Compound A, N-(4-cyanophenyl)-3-hydroxy-2-naphthamide], in data set [1] (patient sample 97, CD34+CD38− subpopulation), the “cells in S-phase (CyTOF)” value is reported as < 0.1 % of total. Further, the “Bcl-2 expression (CyTOF)” value in data set [1] (patient samples 96 and 186, all cell subpopulations, 2 µM, 48 hours) is “reduced Bcl-2 expression”. The colony formation result in data set [2] was “no significant decrease in colony formation”. Moreover, the cytotoxicity at 2000 µM in the data set on HL-60 cells was over 95%.
